Row | melting point [°C] | Structure (SMILES)
1 | > 250 | Nc1nc2ccccc2c2c1nc1n2CCCN1 [Example 5, 8,9,10,11-Tetrahydropyrimido[1′,2′:1,2]imidazo[4,5-c]quinolin-6-amine]
2 | 273 to 276 | Nc1nc2cc(Br)ccc2c2c1nc1n2CCCO1 [Example 7, 3-Bromo-10,11-dihydro-9H-[1,3]oxazino[3′,2′:1,2]imidazo[4,5-c]quinolin-6-amine]
3 | 241 to 243 | CC1CCc2nc3c(N)nc4ccccc4c3n2N1 (stereo not drawn) [Example 24, 10-Methyl-8,9,10,11-tetrahydropyridazino[1′,6′:1,2]imidazo[4,5-c]quinolin-6-amine]
4 | 204 to 206 | Cc1ccc(S(=O)(=O)n2ccc3nc4c(N)nc5ccccc5c4n32)cc1 [Example 25, 10-[(4-Methylphenyl)sulfonyl]-10H-pyrazolo[1′,5′:1,2]imidazo[4,5-c]quinolin-6-amine]
5 | 265 to 273 | C[C@H]1CNc2nc3c(N)nc4ccccc4c3n21 [Example 27, (10S)-10-Methyl-9,10-dihydro-8H-imidazo[1′,2′:1,2]imidazo[4,5-c]quinolin-6-amine]
6 | 272 to 274 | C[C@@H]1CNc2nc3c(N)nc4ccccc4c3n21 [Example 28, (10R)-10-Methyl-9,10-dihydro-8H-imidazo[1′,2′:1,2]imidazo[4,5-c]quinolin-6-amine]

Reference: patent publication US8088788B2, “Substituted fused[1,2] imidazo[4,5-c] ring compounds and methods” (3M Innovative Properties Company, priority 2006, dated 2012)
